Tests used:
[1] = in vivo; cited from earlier work
rats = details: in overnight fasted rats; cited from earlier work
F1-ATPase β-subunit = F1-ATPase β-subunit (Homo sapiens, UniProt P06576); details: effect of the analog on binding of 125I-β-casomorphin1-7 to F1-ATPase β-subunit; cited from earlier work
AMPK = test: pAMPK Western blot in HepG2 cells, 15 min incubation; format: cell-based, human
Method: Human liver cells (HepG2 cell line, American Type Culture Collection, Manassas, Va.) were grown and maintained in Dulbecco's modified eagle's medium (Gibco, Carlsbad, Calif.) containing 10% fetal bovine serum, penicillin (100 I.U./ml), and streptomycin (100 μg/ml). The cells were then incubated for 15 min with 5 mM glucose and various concentrations of enterostatin (0.003, 0.01, 0.1, 1, and 3 μM) and/or of its antagonist β-casomorphin (BCM) (0.003, 0.01, 0.1, 1, and 3 μM). After incubation, the cells were lysed and the cytosolic proteins subjected to Western blot analysis for AMPK and pAMPK. The results for pAMPK activity are shown in FIG. 5A (enterostatin) and FIG. 5B (BCM). […] This effect was blocked by the presence of an antibody to the enterostatin receptor (anti F1-ATPase beta subunit).

F1-ATPase β-subunit, sequence (P06576 48-529): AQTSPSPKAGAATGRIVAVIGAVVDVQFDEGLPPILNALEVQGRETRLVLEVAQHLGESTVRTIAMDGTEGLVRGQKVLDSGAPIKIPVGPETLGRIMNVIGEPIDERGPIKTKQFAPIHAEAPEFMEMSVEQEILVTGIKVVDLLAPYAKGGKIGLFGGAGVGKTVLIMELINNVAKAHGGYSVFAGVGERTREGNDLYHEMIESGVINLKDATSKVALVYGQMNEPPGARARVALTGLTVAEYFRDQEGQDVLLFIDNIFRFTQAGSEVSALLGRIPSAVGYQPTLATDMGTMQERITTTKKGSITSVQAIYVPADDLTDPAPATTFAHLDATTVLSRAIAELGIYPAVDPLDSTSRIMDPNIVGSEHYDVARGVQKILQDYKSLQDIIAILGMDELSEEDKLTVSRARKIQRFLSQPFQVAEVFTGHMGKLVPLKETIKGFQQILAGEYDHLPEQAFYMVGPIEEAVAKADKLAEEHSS

Row | Molecule | Intake of high fat diet (rats) | Binding of 125I-β-casomorphin1-7 (F1-ATPase β-subunit) | other results
1 | CC1=NS(=O)(=O)c2cc(Cl)ccc2N1 [Diazoxide, diazoxide] |  |  | Duration of action [1]: about 8 hr; Time to act (increase of blood sugar) [1]: ≤ 1 h
2 | APGPR | Suppression | Increased | 
3 | APGPRCY [enterostatin analog] | Suppression | Increased | 
4 | APGPRY | No changes | Increased | 
5 | APGPY | Suppression | Increased | 
6 | CYAPGPR [enterostatin analog] | Stimulation | Displaced | 
7 | CYDPGPR [enterostatin analog] | Stimulation | Displaced | 
8 | DPGPR | No changes | Displaced | 
9 | Glucagon: drug for severe hypoglycemia that stimulates the liver to release large amounts of glucose |  |  | Time to restore blood sugar [1]: 5 to 15 min
10 | PDP | Suppression | Increased | 
11 | PGP | No changes | Increased | 
12 | PGPCY | No changes | Increased | 
13 | VPDPR | Suppression | Increased | 
14 | VPDPR-NH2 | No changes | Displaced | 
15 | VPDPRCY [enterostatin analog] | Suppression | Increased | 
16 | YGGAPGPR [enterostatin analog] | Suppression | Increased | 
17 | YPDPR | Suppression | Increased | 
18 | YPFPGPI [enterostatin analog] | Stimulation | Displaced | 
19 | YPGPR | Suppression | Increased | 
20 | YVPDPR | Suppression | Increased | 
21 | cyclo-HP | ^bOnly inhibits food intake as cyclo-HP. |  | 
22 | β-casomorphin [reference compound] |  |  | pAMPK levels (AMPK; HepG2, 0.1 or 1.0 μM, 15 min): increased pAMPK levels; Effect on pAMPK in presence of antibody anti F1-ATPase beta subunit (AMPK; HepG2, 15 min, 5 mM glucose): blocked this effect; AMPkinase activity shown by pAMPK (AMPK; HepG2, 15 min, 5 mM glucose, 0.003-3 μM): activated AMPkinase
